In patent US8816082B2, “Heterocyclyl-pyridinyl-based biphosphonic acid, pharmaceutically acceptable salt thereof, composition thereof and method of use thereof” (The Royal Institution for the Advancement of …, priority 2010, dated 2014):
Where two headings read alike, the source gives them in different places.

How the values were obtained:
[1] = target: T1, human farnesyl pyrophosphate synthase (hFPPS) (Homo sapiens, UniProt P14324); assay: In vitro enzymatic inhibition assay for hFPPS, initial screening conditions (partly purified enzyme, 5 min pre-incubation); assay type: biochemical
T1 sequence (P14324 1-419): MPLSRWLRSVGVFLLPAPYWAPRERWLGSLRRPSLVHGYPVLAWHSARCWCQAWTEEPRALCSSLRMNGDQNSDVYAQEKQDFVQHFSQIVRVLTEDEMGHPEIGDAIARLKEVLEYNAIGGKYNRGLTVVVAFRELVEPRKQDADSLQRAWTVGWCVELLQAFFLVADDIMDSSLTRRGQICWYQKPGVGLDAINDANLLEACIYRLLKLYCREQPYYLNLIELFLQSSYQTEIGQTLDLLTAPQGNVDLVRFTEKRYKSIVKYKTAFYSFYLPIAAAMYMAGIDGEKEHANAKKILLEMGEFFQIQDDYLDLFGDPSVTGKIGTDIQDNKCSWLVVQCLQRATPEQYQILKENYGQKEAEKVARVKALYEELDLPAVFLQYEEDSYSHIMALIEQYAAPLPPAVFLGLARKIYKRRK

hFPPS [2] = target: T2, hFPPS (Homo sapiens, UniProt P14324); assay: hFPPS IC50 determination under more optimised conditions (Table 4)
T2 sequence (P14324 1-419): T1 sequence (P14324 1-419)

[3] = system: breast cancer MCF-7 cells; assay: Anti-proliferation assay (MTT), breast cancer MCF-7 cells; assay type: cell-based; details: Homo sapiens, MCF7, read-out: % inhibition of breast cancer MCF-7 cell proliferation at 50 μM inhibitor, 24 h, vs vehicle control, averages of four determinations
Protocol: (§1) In addition, select compounds were tested in anti-proliferation assays using multiple myeloma JJN3 cells and breast cancer MCF-7 cells. Cells were cultured with either an hFPPS inhibitor (i.e. representative Examples 1 to 42) at increasing concentrations (from 10 nM to 100 μM) or a vehicle control.

[4] = system: multiple myeloma JJN3 cells; assay: Anti-proliferation assay (MTT), multiple myeloma JJN3 cells; assay type: cell-based; details: Homo sapiens
Protocol: as §1

hFPPS [5] = target: T2, hFPPS; assay: hFPPS inhibition, high throughput mode at fixed concentration, more optimized assay (purer hFPPS, 10 min pre-incubation); details: read-out: % Inhibition at 1 μM
[6] = system: NCI-H460 cells (lung large cell carcinoma); assay: Cell growth inhibition assay (MTT), NCI-H460 cells; assay type: cell-based; details: Homo sapiens, 96 h, 4 days, preliminary data, read-out: EC50 (inhibition of cell proliferation)
[7] = JJN-3, read-out: % inhibition of MM JJN3 cell proliferation at 50 μM inhibitor, 24 h, vs vehicle control, averages of four determinations
[8] = JJN-3, read-out: % inhibition of MM JJN3 cell proliferation at 50 μM inhibitor, 48 h, vs vehicle control, averages of four determinations

Compound	inhibition at 50 µM [3] [%]	inhibition at 50 µM [4, 7] [%]	inhibition at 50 µM [4, 8] [%]	inhibition at 1 µM (hFPPS [5]) [%]	further results
O=P(O)(O)C(F)(Cc1cncc(-c2ccc3[nH]ncc3c2)c1)P(=O)(O)O [Compound 7]	20	28	19		IC50 [1]: 640 nM; IC50 (hFPPS [2]): 150 nM
O=P(O)(O)C(Nc1cccc(-c2ccccc2)n1)P(=O)(O)O [Compound 12]				35	
O=P(O)(O)C(Nc1cc(-c2ccc3[nH]ncc3c2)ccn1)P(=O)(O)O [Compound 14]				45	
O=P(O)(O)C(Nc1cc(-c2ccc3ccccc3c2)ccn1)P(=O)(O)O [Compound 26]				65	
O=P(O)(O)C(Nc1ncccc1Br)P(=O)(O)O [Compound 36]	25	15	26		IC50 (hFPPS [2]): 180 nM
O=P(O)(O)C(Nc1cc(-c2ccc(Cl)cc2)ccn1)P(=O)(O)O [Compound 40]				90	
O=P(O)(O)C(Nc1cc(-c2ccc(F)cc2)ccn1)P(=O)(O)O [Compound 42]				95	
O=P(O)(O)C(O)(Cc1cccnc1)P(=O)(O)O [Risedronate, reference compound]	16	9	17		EC50 [6]: 80000 to 100000 nM
